According to ChEMBL document CHEMBL4665827, “Discovery of Small-Molecule Inhibitors of Receptor Activator of Nuclear Factor-κB Ligand with a Superior Therapeutic Index” (J Med Chem, 2020):
The source made the active and inactive calls. No cut-off for these calls is given here.

Key:
[1] = Cytotoxicity against mouse BMMC assessed as reduction in cell viability measured after 48 hrs by MTT assay; type: cell-based; settings: mouse BMMC (bone marrow cells), read-out: LC50
[2] = Therapeutic index, ratio of LC50 for mouse bone marrow cells to IC50 for Inhibition of human RANKL-induced osteoclastogenesis in RANKL cultured mouse bone marrow cells; type: toxicity; settings: read-out: Ratio LC50/IC50
[3] = system: BMMC; assay: Cytotoxicity against mouse BMMC assessed as reduction in cell viability at 5 uM measured after 48 hrs by MTT assay; type: cell-based
[4] = biological target: T1, Tumor necrosis factor ligand superfamily member 11 (Homo sapiens, UniProt O14788); assay: Binding affinity to GST-fused human RANKL extracellular domain (Lys159 to Asp317 residues) expressed in Escherichia coli BL21(DE3) pLysS by fluorescence spectrophotometric assay
T1 sequence (O14788 whole entry): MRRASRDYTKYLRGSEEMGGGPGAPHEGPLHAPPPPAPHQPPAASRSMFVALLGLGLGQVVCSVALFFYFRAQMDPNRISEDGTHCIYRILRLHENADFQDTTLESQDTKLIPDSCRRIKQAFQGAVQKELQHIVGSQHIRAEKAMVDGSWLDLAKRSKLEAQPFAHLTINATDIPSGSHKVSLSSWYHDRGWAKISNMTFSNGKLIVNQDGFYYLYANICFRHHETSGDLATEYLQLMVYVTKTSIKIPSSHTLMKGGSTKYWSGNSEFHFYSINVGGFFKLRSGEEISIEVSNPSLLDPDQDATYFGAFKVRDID

[5] = biological target: T2, Tumor necrosis factor ligand superfamily member 11 (Homo sapiens) (UniProt O14788); assay: Inhibition of human RANKL-induced osteoclastogenesis in RANKL cultured mouse bone marrow cells assessed as reduction in RANKL/M-CSF-induced TRAP activity at 5 uM preincubated with RANKL for 1 hr followed by cell addition and subsequent media replenishment every 48 hrs for 4 days; type: cell-based; settings: time 4.0 day
T2 sequence (whole entry): T1 sequence (O14788 whole entry)

[6] = biological target: T2, Tumor necrosis factor ligand superfamily member 11 (Homo sapiens); assay: Inhibition of human RANKL-induced osteoclastogenesis in RANKL cultured mouse bone marrow cells assessed as reduction in RANKL/M-CSF-induced TRAP activity preincubated with RANKL for 1 hr followed by cell addition and subsequent media replenishment every 48 hrs for 4 days; type: cell-based; settings: time 4.0 day
[7] = biological target: T2, Tumor necrosis factor ligand superfamily member 11 (Homo sapiens); assay: (§1) Inhibition of RANKL (unknown origin) in RANKL cultured mouse RAW264.7 cells assessed as reduction in RANKL/RANK-interaction mediated NFATc1 expression by measuring NFATc1 protein expression at 10 uM preincubated for 1 hr followed by cell culture addition and measured after 2 days by Western blot analysis relative to positive control (reference value: 1); type: cell-based; settings: time 49.0 hrs
[8] = biological target: T2, Tumor necrosis factor ligand superfamily member 11 (Homo sapiens); assay: as §1, with “cFOS” for “NFATc1”; type: cell-based; settings: time 49.0 hrs
[9] = biological target: T2, Tumor necrosis factor ligand superfamily member 11 (Homo sapiens); assay: as §1, with “5” for “10”; type: cell-based; settings: time 49.0 hrs
[10] = biological target: T2, Tumor necrosis factor ligand superfamily member 11 (Homo sapiens); assay: as §1, with “cFOS” for “NFATc1”, “5” for “10”; type: cell-based; settings: time 49.0 hrs
[11] = biological target: T2, Tumor necrosis factor ligand superfamily member 11 (Homo sapiens); assay: as §1, with “cFOS” for “NFATc1”, “2” for “10”; type: cell-based; settings: time 49.0 hrs
[12] = biological target: T2, Tumor necrosis factor ligand superfamily member 11 (Homo sapiens); assay: as §1, with “2” for “10”; type: cell-based; settings: time 49.0 hrs
[13] = biological target: T2, Tumor necrosis factor ligand superfamily member 11 (Homo sapiens); assay: Potency index, ratio of SPD-304 Kd to test compound Kd for binding affinity to GST-fused human RANKL extracellular domain (Lys159 to Asp317 residues) expressed in Escherichia coli BL21(DE3) pLysS by fluorescence spectrophotometric assay
[14] = Effect on osteoblast differentiation in mouse MC3T3-E1 cells assessed as change in ALP activity at 2 to 10 uM with media replenishment every 3 days for 14 days; type: ADME, cell-based; settings: mc3t3-e1, 336 h, dose 2-10 µM, time 14 day
[15] = biological target: T2, Tumor necrosis factor ligand superfamily member 11 (Homo sapiens); assay: Inhibition of human soluble RANKL trimerization assessed as increase in RANKL monomer level preincubated for 1 hr followed by DSS addition and measured after 1 hr by SDS-PAGE analysis; settings: time 2.0 hrs
[16] = biological target: T2, Tumor necrosis factor ligand superfamily member 11 (Homo sapiens); assay: (§2) Inhibition of human RANKL-induced osteoclastogenesis in RANKL cultured mouse bone marrow cells assessed as reduction in phalloidin-labeled actin ring formation at 5 to 10 uM preincubated with RANKL for 1 hr followed by cell addition and subsequent media replenishment every 48 hrs for 4 days by Alexa Fluor 488-conjugated phalloidin/DAPI-staining based fluorescence microscopic analysis; settings: dose microM 5-10, time 4.0 day
[17] = biological target: T2, Tumor necrosis factor ligand superfamily member 11 (Homo sapiens); assay: Inhibition of human RANKL-induced osteoclastogenesis in RANKL cultured mouse bone marrow cells assessed as reduction in RANKL/M-CSF-induced TRAP activity at 5 to 10 uM preincubated with RANKL for 1 hr followed by cell addition and subsequent media replenishment every 48 hrs for 4 days; type: cell-based; settings: dose microM 5-10, time 4.0 day
[18] = biological target: T2, Tumor necrosis factor ligand superfamily member 11 (Homo sapiens); assay: Inhibition of human soluble RANKL trimerization assessed as increase in RANKL monomer level at 1:3 ratio of DSS to RANKL preincubated for 1 hr followed by DSS addition and measured after 1 hr by SDS-PAGE analysis; settings: time 2.0 hrs
[19] = biological target: T2, Tumor necrosis factor ligand superfamily member 11 (Homo sapiens); assay: as §2, with “formation” for “formation at 5 to 10 uM”
[20] = biological target: T2, Tumor necrosis factor ligand superfamily member 11 (Homo sapiens); assay: Inhibition of human soluble RANKL trimerization assessed as increase in RANKL monomer level at 1:3 to 1:10 ratio of DSS to RANKL preincubated for 1 hr followed by DSS addition and measured after 1 hr by SDS-PAGE analysis; settings: time 2.0 hrs
[21] = biological target: T2, Tumor necrosis factor ligand superfamily member 11 (Homo sapiens); assay: Inhibition of RANKL (unknown origin) in RANKL cultured mouse RAW264.7 cells assessed as reduction in RANKL/RANK-interaction mediated NFATc1 expression at 2 to 10 uM preincubated for 1 hr followed by cell culture addition and measured after 2 days by Western blot analysis; type: cell-based; settings: dose microM 2-10, time 49.0 hrs
[22] = biological target: T2, Tumor necrosis factor ligand superfamily member 11 (Homo sapiens); assay: Inhibition of RANKL (unknown origin) in RANKL cultured mouse RAW264.7 cells assessed as reduction in RANKL/RANK-interaction mediated cFOS expression at 2 to 10 uM preincubated for 1 hr followed by cell culture addition and measured after 2 days by Western blot analysis; type: cell-based; settings: dose microM 2-10, time 49.0 hrs

| Compound | CC50 at 48 h [1] [µM] | selectivity ratio [2] | Kd ([4]; read-out: Kd) [µM] | inhibition [5] | other results |
| --- | --- | --- | --- | --- | --- |
| CN(CCN(C)S(=O)(=O)c1ccccc1)C(=O)c1cn(S(=O)(=O)c2cccc([N+](=O)[O-])c2)c2ccccc12 | > 300 | > 112 | – | – | – |
| Cc1ccc2occ(CN(C)CCN(C)Cc3cn(S(=O)(=O)c4ccccc4)c4ccccc34)c(=O)c2c1 | – | – | 6.62 | – | Activity [3]: Toxic |
| O=C(c1cn(-c2cccc(C(F)(F)F)c2)c2ccccc12)N1CCN(C(=O)n2ccnc2)CC1 | < 20 | – | 5.34 | Active | – |
| O=C(c1coc2ccccc2c1=O)N1CCN(Cc2cn(-c3cccc(C(F)(F)F)c3)c3ccc([N+](=O)[O-])cc23)CC1 | < 20 | – | – | 100% | Kd [4]: Not Active |
| CN(CCN(C)S(=O)(=O)c1ccc(C#N)cc1)C(=O)c1cn(S(=O)(=O)c2cccc([N+](=O)[O-])c2)c2ccccc12 | > 500 | > 250 | – | – | – |
| CN(CCN(C)C(=O)c1cn(S(=O)(=O)c2cccc([N+](=O)[O-])c2)c2ccccc12)C(=O)c1coc2ccccc2c1=O | 32.2 | 6.3 | 4.6 | 100% | inhibition [6]: Dose-dependent effect |
| O=C(c1cn(S(=O)(=O)c2cccc([N+](=O)[O-])c2)c2ccccc12)N1CCN(S(=O)(=O)c2ccccc2)CC1 | 123 | 84.8 | – | – | fold change (FC) [7]: 0.34; fold change (FC) [8]: 0.56; fold change (FC) [9]: 0.57; fold change (FC) [10]: 0.63; fold change (FC) [11]: 0.91; fold change (FC) [12]: 0.82 |
| CN(CCN(C)Cc1cn(S(=O)(=O)c2ccccc2)c2ccccc12)Cc1coc2ccccc2c1=O | 58.5 | 23.4 | 5.24 | 100% | Ratio [13]: 2.7; Activity [14]: Non-Toxic; inhibition [15]: Dose-dependent effect; inhibition [16]: Active; inhibition [17]: Active; inhibition [6]: Dose-dependent effect |
| CN(CCN(C)S(=O)(=O)c1cccc([N+](=O)[O-])c1)C(=O)c1cn(S(=O)(=O)c2cccc([N+](=O)[O-])c2)c2ccccc12 | 18.3 | 9.5 | – | – | – |
| Cc1cc2occ(CN3CCN(Cc4cn(-c5cccc(C(F)(F)F)c5)c5ccccc45)CC3)c(=O)c2cc1C | < 20 | – | > 10 | 100% | – |
| CN(CCN(C)C(=O)c1cn(-c2cccc([N+](=O)[O-])c2)c2ccccc12)C(=O)c1coc2ccccc2c1=O | 44.2 | 27.8 | 2.18 | 100% | fold change (FC) [7]: 0.39; fold change (FC) [8]: 0.48; fold change (FC) [9]: 0.52; fold change (FC) [10]: 0.56; inhibition [18]: Active; Activity [14]: Non-Toxic; fold change (FC) [11]: 0.58; inhibition [19]: Dose-dependent effect; inhibition [6]: Dose-dependent effect; fold change (FC) [12]: 0.66 |
| N#Cc1ccc(S(=O)(=O)N2CCN(C(=O)c3cn(S(=O)(=O)c4cccc([N+](=O)[O-])c4)c4ccccc34)CC2)cc1 | 52.6 | 10.4 | – | – | – |
| O=C(c1ccccc1)N1CCN(Cc2cn(-c3cccc(C(F)(F)F)c3)c3ccccc23)CC1 | > 20 | – | 18.6 | Active | – |
| CN(CCN(C)C(=O)c1cn(S(=O)(=O)c2ccccc2)c2ccccc12)C(=O)c1ccccc1F | > 20 | – | 12.5 | Active | – |
| Cc1ccc2c(=O)c(CN(C)CCN(C)Cc3cn(S(=O)(=O)c4ccccc4)c4ccccc34)coc2c1 | < 20 | – | 4.9 | 100% | – |
| O=C(c1coc2ccccc2c1=O)N1CCN(C(=O)c2cn(S(=O)(=O)c3cccc([N+](=O)[O-])c3)c3ccccc23)CC1 | < 20 | – | – | 100% | Kd [4]: Not Active |
| Cc1cc2occ(CN(C)CCN(C)Cc3cn(-c4cccc(C(F)(F)F)c4)c4ccccc34)c(=O)c2cc1C | 3.2 | 3.2 | – | – | inhibition [20]: Active; Activity [3]: Toxic; inhibition [6]: Dose-dependent effect |
| CN(CCN(C)C(=O)c1cn(S(=O)(=O)c2ccccc2)c2ccccc12)C(=O)c1coc2ccccc2c1=O | 62.3 | 21.8 | 4.6 | 100% | Ratio [13]: 3; inhibition [21]: Active; inhibition [22]: Active; Activity [14]: Non-Toxic; inhibition [6]: Dose-dependent effect |
| O=C(c1ccc2ccccc2c1)N1CCN(Cc2cn(-c3cccc(C(F)(F)F)c3)c3ccc([N+](=O)[O-])cc23)CC1 | > 20 | – | – | Active | Kd [4]: Not Active |
| Cc1cc2occ(CN(C)CCN(C)Cc3cn(S(=O)(=O)c4ccccc4)c4ccccc34)c(=O)c2cc1C | – | – | 8.71 | – | Activity [3]: Toxic |
| O=C(c1coc2ccccc2c1=O)N1CCN(Cc2cn(-c3cccc(C(F)(F)F)c3)c3ccccc23)CC1 | > 20 | – | 8.49 | Active | – |
| O=C(c1cn(S(=O)(=O)c2cccc([N+](=O)[O-])c2)c2ccccc12)N1CCN(S(=O)(=O)c2cccc([N+](=O)[O-])c2)CC1 | 118 | 18.5 | – | – | – |
